Entries after “also recorded” stand apart in the source; their conditions may differ.
test system: hippocampal slice cultures; experiment: Aβ oligomer-induced neuronal cell death by PI staining (PI uptake) in hippocampal slice cultures; conditions: compound 1 μM, 1 h pretreatment, then Aβ oligomers 5 μM, 48 h; mouse hippocampal slices
Description: In this Example, we used a convenient assay for neuronal cell death, which was induced by incubation with Aβ oligomers in hippocampal slice cultures. The binding of propidium iodide (PI) with DNA of dead cells gives characteristic fluorescence that could be followed by fluorescence microscopy. Since PI is impermeable to live cell membranes, the observed fluorescence is indicative of the extent of dead cell populations.
1.0 mg of Δβ1-42 peptide was dissolved in 120 μL of hexafluoroisopropanol for 60 min at room temperature, and placed back on ice for 5-10 min. Hexafluoroisopropanol was evaporated overnight in the hood at room temperature. The sample was dissolved by 100% DMSO by adding 20 μL of fresh anhydrous DMSO (Sigma Hybri-Max) to 0.45 mg of the peptide, and diluted to 5 mM peptide stock into medium. Diluted peptide was incubated at 4° C. for 24 h, and then centrifuged at 14,000 g for 10 min in the cold. Before treating slice culture with Δβ oligomers, the oligomers were incubated at room temperature for 20 h.
Hippocampal slice cultures were prepared from 7-10 day-old mouse pups. Slices were cut at 400 μm on a Mcllwain tissue chopper, transferred to Millicell (Millipore Corp., Bedford, Mass.) membrane inserts (0.4 μm), and placed in 6-well culture plated. The upper surfaces of the slices were exposed to a humidified 37° C. atmosphere containing 5% CO2. Slice culture media consisted of basal Eagles medium with Earle's balanced salt solution, 20% heat-inactivated horse serum, enriched with glucose to a concentration of 5.6 mM. The medium was changed every other day. Slices were examined periodically for viability, and any dark or abnormal slices were discarded.
The effects of Δβ oligomers were tested in the slices which had been maintained for 15-20 days in vitro. All reagents were added to serum free medium (no horse serum). Δβ oligomers were added to cultures in serum free medium. Vehicles were treated the same way except with no peptide.
To analyze the degree of hippocampal neuronal cell death, hippocampal slices were stained by adding PI into slice culture medium at a concentration of 5 μg/mL. At indicated times after Δβ oligomers treatment, the degree of hippocampal neuronal death was evaluated by microscopic observation of PI uptake as described previously. […] The intensity of the fluorescence was quantitatively analyzed using Scion Image. The images were expressed as an arbitrary unit of PI uptake.
Mouse hippocampal slice cultures were treated with Aβ oligomers in the presence of PI as the staining agent. The degree of hippocampal neuronal death was monitored by fluorescence microscopic observation of the PI uptake. The intensities of the fluorescence were conveniently analyzed using Scion images. The intensity of the PI fluorescence reflects the relative number of the dead cells, since PI cannot permeate the live cell membranes.

SMILES	neuroprotective effect against Aβ-induced neurotoxicity (neuronal cell survival, PI uptake)
Fc1c(F)c(F)c(Cn2cc(Cn3cnc4c(NCc5ccccc5)nc(Cl)nc43)nn2)c(F)c1F [Compound 9, 2-Chloro-6-benzylamino-9-[1-(pentafluorobenzyl)-1H-1,2,3-triazol-4-yl-methyl]purine]	virtually no neuroprotective effect
Fc1cccc(F)c1Cn1cc(Cn2cnc3c(NCc4ccccc4)nc(Cl)nc32)nn1 [Compound 8, 2-Chloro-6-benzylamino-9-[1-(2,6-difluorobenzyl)-1H-1,2,3-triazol-4-yl-methyl]purine]	only marginal effects
Clc1nc(NCc2ccccc2)c2ncn(Cc3cn(Cc4ccccc4)nn3)c2n1 [Compound 6, 2-Chloro-6-benzylamino-9-(1-benzyl-1H-1,2,3-triazol-4-yl-methyl)purine]	only marginal effects
Fc1ccccc1Cn1cc(Cn2cnc3c(NCc4ccccc4)nc(Cl)nc32)nn1 [Compound 7, 2-Chloro-6-benzylamino-9-[1-(2-fluorobenzyl)-1H-1,2,3-triazol-4-yl-methyl]purine]	neuronal cell survival rates comparable to those of the control experiments; also recorded: effectively suppressed Aβ-induced neurotoxicity
CN1CC[C@H](c2c(O)cc(O)c3c(=O)cc(-c4ccccc4Cl)oc23)[C@H](O)C1 [Flavopiridol, reference compound]	neuronal cell survival rates comparable to those of the control experiments
CC[C@H](CO)Nc1nc(NCc2ccccc2)c2ncn(C(C)C)c2n1 [Roscovitine, reference compound]	neuronal cell survival rates comparable to those of the control experiments

Reference: patent US8969556B2, “Purine-based triazoles” (Case Western Reserve University, priority 2010, dated 2015)
